Laboratory results as given in PMC8745601 (International Journal of Molecular Sciences, 2021).

How the values were obtained:
[1] = test system: HEK293 cells expressing OATP1A2*1, *2, *3; conditions: OATP1A2 transfected cells; 100 µmol/L doxorubicin, 72 h; versus DMSO
Experimental: (§1) Resazurin-Assay: To determine cell viability, cells were seeded at a density of 10,000 cells/well in 96-well multiplates. […] Afterward, 100 µL from each well was placed in a cavity of a 96-well plate, and the fluorescence was determined on a microplate reader (TECAN infinite M200, Tecan GmbH, Crailsheim, Germany) at an excitation wavelength of 530 nm and an emission wavelength of 590 nm.

[2] = test system: breast cancer cell lines MCF-7, MDA-MB-231, ZR-75-1; assay: Resazurin cell viability assay in breast cancer cell lines; conditions: 100 µmol/L doxorubicin, 72 h, versus DMSO
Experimental: as §1

OATP1A2*2/*3 = assay: Doxorubicin uptake clearance by OATP1A2 genetic variants versus wild type; assay type: cell-based, human; conditions: OATP1A2*2 and *3 versus OATP1A2*1
Experimental: (§3) Cellular uptake studies: For all transport studies, cells were seeded in 24-well plates and incubated in a full growth medium at an initial density of 200,000 cells/well for 3 days. Before starting each transport experiment, cells were washed with a pre-warmed (37 °C) incubation buffer [64]. […] Protein concentration of whole cell lysate was determined to quantify cell density after each experiment using the BCA assay according to the manufacturer’s instructions (Pierce, Rockford, IL, USA).
(§4) Protein abundance of OATP1A2*1–*3 and OCT1–3 were measured by mass spectrometry-based targeted proteomics using a validated LC-MS/MS method as recently described [65].
(§5) Statistical evaluation: All experiments were performed at least three times unless otherwise noted. The OATP1A2*1–*3 and OCT1-3 net uptake was obtained by subtracting the uptake into wild-type cells from that of the transporter-transfected cells. Km and Vmax were assessed using Prism 5.01 (GraphPad Software, San Diego, CA, USA). […] Km and Vmax are presented as arithmetic means ± standard deviation.

[3] = pH 7.4; cited from earlier work
OCT2 = biological target: T1, OCT2 (Homo sapiens, UniProt O15244); assay: in vitro; conditions: mdck
T1 sequence (O15244 1-555): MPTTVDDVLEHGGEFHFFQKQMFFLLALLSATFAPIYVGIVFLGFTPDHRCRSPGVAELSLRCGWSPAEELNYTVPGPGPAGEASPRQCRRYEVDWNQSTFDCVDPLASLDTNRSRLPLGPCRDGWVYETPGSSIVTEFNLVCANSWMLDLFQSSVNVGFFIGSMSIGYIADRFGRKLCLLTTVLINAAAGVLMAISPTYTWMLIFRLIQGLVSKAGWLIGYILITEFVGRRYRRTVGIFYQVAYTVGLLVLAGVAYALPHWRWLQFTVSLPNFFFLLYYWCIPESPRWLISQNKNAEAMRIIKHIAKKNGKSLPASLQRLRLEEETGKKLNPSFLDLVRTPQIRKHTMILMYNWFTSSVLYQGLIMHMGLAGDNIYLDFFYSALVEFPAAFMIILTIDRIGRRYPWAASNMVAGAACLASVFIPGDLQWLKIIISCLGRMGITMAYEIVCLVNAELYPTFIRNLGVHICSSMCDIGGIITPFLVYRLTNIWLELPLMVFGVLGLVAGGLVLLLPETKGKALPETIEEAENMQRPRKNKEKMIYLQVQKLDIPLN
Experimental: as §3
(§6) Statistical evaluation: All experiments were performed at least three times unless otherwise noted. The OATP1A2*1–*3 and OCT1-3 net uptake was obtained by subtracting the uptake into wild-type cells from that of the transporter-transfected cells. Km and Vmax were assessed using Prism 5.01 (GraphPad Software, San Diego, CA, USA). The differences in the doxorubcin uptake in OATP1A2*1–*3 and in OCT1-3 transfected cells were adjusted to the membranous transporter protein levels in the whole cell lysate. Km and Vmax are presented as arithmetic means ± standard deviation.

OCT1-3 and OATP1A2 = assay: in vitro; conditions: human, OATP1A2*1 and OCT1-3 transfected cells
Experimental: as §3, §4, §5

OATP1A2 = conditions: transiently transfected HeLa cells, ref 22 (Lee et al.); cited from earlier work
OCT1 = biological target: T2, OCT1 (Homo sapiens, UniProt O15245); assay: in vitro; conditions: mdck
T2 sequence (O15245 1-554): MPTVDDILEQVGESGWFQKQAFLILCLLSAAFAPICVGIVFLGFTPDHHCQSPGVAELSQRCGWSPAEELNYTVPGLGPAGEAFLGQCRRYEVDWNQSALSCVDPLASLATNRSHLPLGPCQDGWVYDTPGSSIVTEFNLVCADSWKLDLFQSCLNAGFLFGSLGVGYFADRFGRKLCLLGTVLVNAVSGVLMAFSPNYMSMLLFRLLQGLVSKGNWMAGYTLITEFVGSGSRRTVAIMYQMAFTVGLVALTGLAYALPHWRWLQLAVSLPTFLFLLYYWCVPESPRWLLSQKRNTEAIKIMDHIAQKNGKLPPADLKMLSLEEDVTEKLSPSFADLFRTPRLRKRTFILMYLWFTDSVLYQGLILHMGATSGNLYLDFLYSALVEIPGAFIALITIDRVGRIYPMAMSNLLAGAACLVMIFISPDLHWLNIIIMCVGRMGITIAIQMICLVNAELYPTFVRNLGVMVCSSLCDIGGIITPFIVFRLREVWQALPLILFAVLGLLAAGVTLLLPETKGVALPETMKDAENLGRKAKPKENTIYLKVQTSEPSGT
Experimental: as §3, §6

OCT6 = OCT6 affinity to doxorubicin; cited from earlier work
BCRP = biological target: T3, BCRP (Homo sapiens, UniProt Q9UNQ0); assay: Transwell assay, MDCKII cells stably expressing BCRP; assay type: cell-based; conditions: 100 µmol/L doxorubicin; MDCKII-BCRP on Transwell
T3 construct: expressed in transfected cells; host or cells: MDCKII
T3 sequence (Q9UNQ0 1-655): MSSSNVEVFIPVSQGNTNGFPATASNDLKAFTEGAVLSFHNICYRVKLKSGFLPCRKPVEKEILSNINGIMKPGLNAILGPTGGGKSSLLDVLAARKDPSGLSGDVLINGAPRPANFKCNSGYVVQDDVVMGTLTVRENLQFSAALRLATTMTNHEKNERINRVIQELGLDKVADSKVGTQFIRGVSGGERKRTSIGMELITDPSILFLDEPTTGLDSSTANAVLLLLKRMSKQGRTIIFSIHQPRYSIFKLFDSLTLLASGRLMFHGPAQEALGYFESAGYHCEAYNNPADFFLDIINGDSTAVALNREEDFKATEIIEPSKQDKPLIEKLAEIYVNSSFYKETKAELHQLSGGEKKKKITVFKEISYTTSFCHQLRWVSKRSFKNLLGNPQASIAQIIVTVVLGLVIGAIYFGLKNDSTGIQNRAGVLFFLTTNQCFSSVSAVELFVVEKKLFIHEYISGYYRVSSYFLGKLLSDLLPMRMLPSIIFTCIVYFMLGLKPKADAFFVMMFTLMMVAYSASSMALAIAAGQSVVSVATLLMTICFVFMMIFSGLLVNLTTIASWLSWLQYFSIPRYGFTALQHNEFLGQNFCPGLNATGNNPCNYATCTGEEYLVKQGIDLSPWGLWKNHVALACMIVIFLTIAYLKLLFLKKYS
Experimental: (§2) In brief, MDCKII cells stably expressing P-gp or BCRP were seeded on 0.4 µm Transwell® membrane inserts (200.000 cells/insert; Ø6.5 mm, growth area 0.33 cm2) and allowed to differentiate for five days. The integrity of the monolayer was confirmed by monitoring the trans-epithelial electrical resistance (TEER) using the EVOMX system (WPI, Sarasota, FL, USA). […] Every 30 min, the incubation buffer was removed from the receiver compartment and replaced by a freshly preheated buffer for a total time of 2.5 h.

P-gp = biological target: T4, P-gp (Homo sapiens, UniProt P08183); assay: Transwell assay, MDCKII cells stably expressing P-gp; assay type: cell-based; conditions: 100 µmol/L doxorubicin; MDCKII-P-gp on Transwell
T4 construct: expressed in transfected cells; host or cells: MDCKII
T4 sequence (P08183 whole entry): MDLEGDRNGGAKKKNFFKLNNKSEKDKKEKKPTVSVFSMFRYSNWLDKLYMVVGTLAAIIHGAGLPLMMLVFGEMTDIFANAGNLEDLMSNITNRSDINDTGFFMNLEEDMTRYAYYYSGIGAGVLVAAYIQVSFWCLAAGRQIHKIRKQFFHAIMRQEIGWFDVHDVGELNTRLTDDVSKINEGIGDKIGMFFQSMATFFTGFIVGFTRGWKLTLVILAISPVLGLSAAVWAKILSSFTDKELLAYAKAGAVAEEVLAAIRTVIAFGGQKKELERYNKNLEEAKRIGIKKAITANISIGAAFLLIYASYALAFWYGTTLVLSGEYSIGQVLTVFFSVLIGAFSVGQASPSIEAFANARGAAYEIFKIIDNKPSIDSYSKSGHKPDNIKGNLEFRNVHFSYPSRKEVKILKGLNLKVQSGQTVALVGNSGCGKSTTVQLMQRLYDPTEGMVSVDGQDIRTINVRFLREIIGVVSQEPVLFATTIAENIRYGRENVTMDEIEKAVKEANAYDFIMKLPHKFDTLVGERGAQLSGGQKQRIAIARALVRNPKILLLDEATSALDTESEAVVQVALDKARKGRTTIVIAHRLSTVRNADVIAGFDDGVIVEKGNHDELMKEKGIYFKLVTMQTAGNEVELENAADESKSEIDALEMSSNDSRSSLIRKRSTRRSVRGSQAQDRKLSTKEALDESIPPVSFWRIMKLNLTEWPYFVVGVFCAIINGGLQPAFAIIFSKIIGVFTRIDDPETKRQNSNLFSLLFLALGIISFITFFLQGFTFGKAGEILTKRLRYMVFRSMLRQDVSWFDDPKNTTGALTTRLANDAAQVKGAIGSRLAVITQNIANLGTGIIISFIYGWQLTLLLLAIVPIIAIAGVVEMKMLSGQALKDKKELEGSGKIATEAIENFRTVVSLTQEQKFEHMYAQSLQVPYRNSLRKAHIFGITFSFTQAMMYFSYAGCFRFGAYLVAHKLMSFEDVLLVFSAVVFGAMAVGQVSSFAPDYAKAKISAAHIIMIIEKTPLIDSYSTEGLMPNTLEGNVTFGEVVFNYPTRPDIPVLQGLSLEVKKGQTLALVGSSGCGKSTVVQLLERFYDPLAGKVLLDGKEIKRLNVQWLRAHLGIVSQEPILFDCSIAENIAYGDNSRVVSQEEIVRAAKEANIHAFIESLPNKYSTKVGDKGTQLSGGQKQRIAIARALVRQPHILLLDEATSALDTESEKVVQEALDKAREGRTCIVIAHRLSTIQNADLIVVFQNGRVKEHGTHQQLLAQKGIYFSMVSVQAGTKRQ
Experimental: as §2

SMILES: COc1cccc2c1C(=O)c1c(O)c3c(c(O)c1C2=O)C[C@@](O)(C(=O)CO)C[C@@H]3O[C@H]1C[C@H](N)[C@H](O)[C@H](C)O1 [doxorubicin, Doxorubicin]
- cell viability in presence of doxorubicin [1]: significantly reduced
- cell viability in presence of doxorubicin [2]: significantly reduced
- diminished cellular uptake clearance by the genetic variants (OATP1A2*2/*3): 51–70%
- present as cationic moiety [3]: 89%
- microsomal CLint at 3 min (OCT2): 0.5 ± 0.26 µL/min/mg
- Km (OCT1-3 and OATP1A2): 5 to 13 µM
- Km (OATP1A2): 31.7 µM
- microsomal CLint at 3 min (OCT1): 4.16 ± 1.1 µL/min/mg
- Km (OCT6): ~5 µM
- vectorial transport of doxorubicin by BCRP (BCRP): vectorial transport from the basolateral to the apical compartment
- vectorial transport of doxorubicin by P-gp (P-gp): vectorial transport from the basolateral to the apical compartment
